Active and inactive are the calls of the source.
What was measured:
[1] = target: Voltage-gated inwardly rectifying potassium channel KCNH2 (Homo sapiens, UniProt Q12809); conditions: Potency;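 note: confirmatory quantitative high-throughput screen measuring inhibition of hERG channel activity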
Aminopeptidase N = target: T1, Aminopeptidase N (Plasmodium falciparum FcB1/Columbia, UniProt O96935); assay: P. falciparum M1AAP inhibitors, biochemical, fluorogenic H-Leu-NHMec substrate, 1536-well (AID 1445); set-up: species or system Plasmodium falciparum 3D7, 3D7
T1 sequence (O96935 whole entry): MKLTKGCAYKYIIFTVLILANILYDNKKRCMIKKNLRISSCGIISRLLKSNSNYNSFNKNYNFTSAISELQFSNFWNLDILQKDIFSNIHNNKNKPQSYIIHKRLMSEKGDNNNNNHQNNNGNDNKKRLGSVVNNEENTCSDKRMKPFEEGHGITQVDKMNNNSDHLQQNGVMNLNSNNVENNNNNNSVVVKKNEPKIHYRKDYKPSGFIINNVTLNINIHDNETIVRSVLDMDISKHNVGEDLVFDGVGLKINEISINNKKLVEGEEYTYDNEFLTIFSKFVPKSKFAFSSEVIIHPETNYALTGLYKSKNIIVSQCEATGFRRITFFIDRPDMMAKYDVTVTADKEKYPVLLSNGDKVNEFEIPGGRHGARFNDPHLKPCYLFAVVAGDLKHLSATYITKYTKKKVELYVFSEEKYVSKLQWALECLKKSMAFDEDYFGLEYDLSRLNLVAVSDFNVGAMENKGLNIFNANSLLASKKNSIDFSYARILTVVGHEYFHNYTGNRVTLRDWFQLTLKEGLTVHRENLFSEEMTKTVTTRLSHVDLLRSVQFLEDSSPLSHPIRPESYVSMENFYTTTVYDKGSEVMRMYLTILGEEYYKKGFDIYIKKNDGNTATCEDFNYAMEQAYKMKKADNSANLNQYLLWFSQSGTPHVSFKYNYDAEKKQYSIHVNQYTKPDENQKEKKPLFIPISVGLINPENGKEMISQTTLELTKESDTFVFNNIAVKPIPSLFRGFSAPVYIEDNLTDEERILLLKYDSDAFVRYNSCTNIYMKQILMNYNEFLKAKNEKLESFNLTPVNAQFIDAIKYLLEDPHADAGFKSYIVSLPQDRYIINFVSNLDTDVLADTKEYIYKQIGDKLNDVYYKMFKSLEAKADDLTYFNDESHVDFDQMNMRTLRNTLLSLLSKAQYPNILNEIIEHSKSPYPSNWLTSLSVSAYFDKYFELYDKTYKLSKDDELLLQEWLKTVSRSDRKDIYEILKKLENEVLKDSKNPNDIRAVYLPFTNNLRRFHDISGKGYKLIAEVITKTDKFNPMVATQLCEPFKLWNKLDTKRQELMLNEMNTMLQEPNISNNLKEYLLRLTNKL

Vero = assay: cells; format: functional; conditions: Chlorocebus sabaeus
[2] = target: Dual specificity tyrosine-phosphorylation-regulated kinase 1A (Rattus norvegicus, UniProt Q63470); format: biochemical, Homo sapiens
[3] = NIH-3T3 fibroblast cytotoxicity, dose response, cytotoxicity control, cell-based, fluorescence, Alamar Blue, secondary assay (AID 2327); format: functional;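 note: NIH-3T3 mouse fibroblasts cultured with fluconazole at 8 µg/mL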
[4] = C. albicans growth with fluconazole, confirmation, fluorescence, retest (AID 2467); format: functional, cell-based
[5] = target: T2, Alkaline phosphatase, tissue-nonspecific isozyme (Homo sapiens, UniProt P05186); assay: human TNAP enzyme inhibitors, SAR follow-up, biochemical, luminescent, dose response (AID 1056)
T2 sequence (P05186 whole entry): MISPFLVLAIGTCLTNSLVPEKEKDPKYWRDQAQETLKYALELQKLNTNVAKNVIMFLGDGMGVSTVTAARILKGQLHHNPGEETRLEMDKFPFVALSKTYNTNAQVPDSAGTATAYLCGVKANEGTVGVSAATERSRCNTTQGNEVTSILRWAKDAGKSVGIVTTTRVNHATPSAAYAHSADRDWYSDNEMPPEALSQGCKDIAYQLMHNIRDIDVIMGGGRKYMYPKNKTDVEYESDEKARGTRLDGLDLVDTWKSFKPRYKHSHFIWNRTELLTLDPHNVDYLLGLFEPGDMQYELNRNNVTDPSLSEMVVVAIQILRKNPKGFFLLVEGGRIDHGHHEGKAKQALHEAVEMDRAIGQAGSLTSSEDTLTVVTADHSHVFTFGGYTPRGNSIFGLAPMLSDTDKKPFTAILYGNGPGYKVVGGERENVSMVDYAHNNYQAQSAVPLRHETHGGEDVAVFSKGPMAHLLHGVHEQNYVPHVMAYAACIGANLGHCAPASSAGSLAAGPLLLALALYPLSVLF

[6] = target: Glyceraldehyde-3-phosphate dehydrogenase (Homo sapiens, UniProt P04406)
HeLa = assay: HeLa cell cytotoxicity, dose response, cytotoxicity control for MITF activator project, CellTiter-Glo luminescence, cherry-pick samples (AID 540259); format: functional, cell-based; conditions: Homo sapiens
Protein Wnt-3a = Protein Wnt-3a (Mus musculus, UniProt P27467); assay: Wnt3a-driven reporter signaling inhibition, dose response, selectivity assay for Gli-SUFU antagonist project, Wnt-LIGHT cells, luminescence (AID 651570); format: functional; conditions: read-out: IC50_Mean;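 note: Wnt-LIGHT reporter cells stimulated with conditioned medium from Wnt3a-producing cells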
INS1 = assay: beta cell apoptosis inhibitors, cytokine rescue, dose response, luminescence, retest (AID 449756); format: functional, cell-based; conditions: Rattus norvegicus;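 note: cell death triggered by IL-1 beta plus TNF-alpha plus IFN-gamma mixture; protective hits raise ATP signal compared with cytokine alone wells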
[7] = target: T3, Carboxy-terminal domain RNA polymerase II polypeptide A small phosphatase 1 (Homo sapiens, UniProt Q9GZU7); assay: inhibitors of CTDSP1, concentration-response testing, biochemical assay, absorbance-based, actives from ultra-high-throughput screening (AID 540297); format: functional
T3 sequence (Q9GZU7 whole entry): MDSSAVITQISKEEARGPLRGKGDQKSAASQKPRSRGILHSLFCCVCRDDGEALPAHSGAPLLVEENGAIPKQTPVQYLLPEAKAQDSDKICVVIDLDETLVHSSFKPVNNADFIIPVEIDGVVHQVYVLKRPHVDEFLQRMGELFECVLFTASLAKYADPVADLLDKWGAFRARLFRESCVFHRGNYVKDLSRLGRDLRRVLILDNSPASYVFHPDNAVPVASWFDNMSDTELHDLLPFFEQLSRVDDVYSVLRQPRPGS

[8] = THP-1 cell cytotoxicity, dose response, cytotoxicity control for Vif-APOBEC3G degradation inhibitor project, THP-1 cells (AID 1117359); format: functional; conditions: Human immunodeficiency virus 1, THP-1
[9] = Luminescence Cell-Based Dose Retest to Confirm Inhibitors of Cancer Stem Cells. [Related pubchem assays (depositor defined):AID2717, AID2721]; format: functional; conditions: Homo sapiens
[10] = target: Mitogen-activated protein kinase 10 (Homo sapiens, UniProt P53779); assay: Dose response biochemical screening assay for inhibitors of c-Jun N-Terminal Kinase 3 (JNK3). [Related pubchem assays: 746 ]
[11] = target: T4, Rac GTPase-activating protein 1 (Homo sapiens, UniProt Q9H0H5); assay: MgcRacGAP GTPase-activating activity inhibitors, confirmation, biochemical, ADP Hunter fluorescence, primary and confirmatory (AID 624330); format: functional
T4 sequence (Q9H0H5 whole entry): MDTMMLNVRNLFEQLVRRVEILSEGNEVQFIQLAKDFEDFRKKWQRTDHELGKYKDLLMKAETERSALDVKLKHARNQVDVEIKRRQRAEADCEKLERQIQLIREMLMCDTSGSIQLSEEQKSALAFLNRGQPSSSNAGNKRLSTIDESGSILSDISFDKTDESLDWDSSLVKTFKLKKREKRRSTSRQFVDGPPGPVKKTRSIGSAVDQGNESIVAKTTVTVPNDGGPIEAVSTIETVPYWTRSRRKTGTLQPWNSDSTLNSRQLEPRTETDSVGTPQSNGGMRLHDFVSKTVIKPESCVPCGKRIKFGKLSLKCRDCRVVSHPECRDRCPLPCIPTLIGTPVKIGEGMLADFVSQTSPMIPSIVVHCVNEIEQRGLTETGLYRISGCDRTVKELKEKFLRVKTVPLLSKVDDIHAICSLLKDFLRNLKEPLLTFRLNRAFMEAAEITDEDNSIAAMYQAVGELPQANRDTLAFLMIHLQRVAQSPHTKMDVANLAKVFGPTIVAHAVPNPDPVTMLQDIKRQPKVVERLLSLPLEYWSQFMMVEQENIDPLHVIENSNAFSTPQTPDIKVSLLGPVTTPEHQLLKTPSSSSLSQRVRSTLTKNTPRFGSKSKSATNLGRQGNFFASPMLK

Large T antigen = Large T antigen (Simian virus 40, UniProt P03070); format: functional, Betapolyomavirus macacae;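 note: Confirmatory-stage PubChem screen for compounds that inhibit SV40 T antigen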
Cytochrome P450 3A4 = Cytochrome P450 3A4 (Homo sapiens, UniProt P08684);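 note: CYP3A4 tested as one member of a cytochrome P450 panel screen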
Cytochrome P450 1A2 = target: T5, Cytochrome P450 1A2 (Homo sapiens, UniProt P05177);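 note: PubChem cytochrome P450 panel assay, CYP1A2 panel member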
T5 sequence (P05177 whole entry): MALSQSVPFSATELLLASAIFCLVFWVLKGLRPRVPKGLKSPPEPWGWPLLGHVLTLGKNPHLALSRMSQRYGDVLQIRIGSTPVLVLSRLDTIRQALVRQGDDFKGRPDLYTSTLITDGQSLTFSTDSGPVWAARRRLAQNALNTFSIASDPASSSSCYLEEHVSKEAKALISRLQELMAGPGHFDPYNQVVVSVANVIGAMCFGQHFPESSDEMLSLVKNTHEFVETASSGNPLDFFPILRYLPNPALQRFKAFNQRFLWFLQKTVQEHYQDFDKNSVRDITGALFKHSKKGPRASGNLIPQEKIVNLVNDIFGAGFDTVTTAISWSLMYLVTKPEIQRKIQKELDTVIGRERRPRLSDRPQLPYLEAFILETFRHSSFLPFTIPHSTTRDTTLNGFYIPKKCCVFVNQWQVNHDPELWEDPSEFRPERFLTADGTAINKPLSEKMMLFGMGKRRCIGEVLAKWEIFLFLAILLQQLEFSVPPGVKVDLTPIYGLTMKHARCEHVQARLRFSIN

Cytochrome P450 2C19 = Cytochrome P450 2C19 (Homo sapiens, UniProt P33261); assay: Cytochrome panel assay with activity outcomes. Panel member name: p450-cyp2c19 Compounds with AC50 equal or less than 10 uM are considered active; format: functional; conditions: read-out: AC50
Cytochrome P450 2D6 = Cytochrome P450 2D6 (Homo sapiens, UniProt P10635);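 note: CYP2D6 member of a cytochrome P450 panel assay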
Sequence of Cytochrome P450 2D6 (P10635 whole entry): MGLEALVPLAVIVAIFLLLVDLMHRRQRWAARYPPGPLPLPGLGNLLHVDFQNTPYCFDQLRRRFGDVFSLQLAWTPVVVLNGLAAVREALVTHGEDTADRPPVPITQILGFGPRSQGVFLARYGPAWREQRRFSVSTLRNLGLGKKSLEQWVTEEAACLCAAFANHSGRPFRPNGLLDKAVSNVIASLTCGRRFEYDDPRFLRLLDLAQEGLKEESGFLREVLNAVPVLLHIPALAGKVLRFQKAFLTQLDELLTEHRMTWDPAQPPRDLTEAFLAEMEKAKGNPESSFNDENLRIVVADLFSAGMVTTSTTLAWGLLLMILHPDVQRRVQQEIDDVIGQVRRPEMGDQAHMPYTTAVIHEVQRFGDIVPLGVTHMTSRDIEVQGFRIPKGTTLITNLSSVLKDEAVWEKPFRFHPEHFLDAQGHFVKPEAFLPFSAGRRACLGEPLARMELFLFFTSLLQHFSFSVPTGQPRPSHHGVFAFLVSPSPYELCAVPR

Sequence of Glyceraldehyde-3-phosphate dehydrogenase (P04406 whole entry): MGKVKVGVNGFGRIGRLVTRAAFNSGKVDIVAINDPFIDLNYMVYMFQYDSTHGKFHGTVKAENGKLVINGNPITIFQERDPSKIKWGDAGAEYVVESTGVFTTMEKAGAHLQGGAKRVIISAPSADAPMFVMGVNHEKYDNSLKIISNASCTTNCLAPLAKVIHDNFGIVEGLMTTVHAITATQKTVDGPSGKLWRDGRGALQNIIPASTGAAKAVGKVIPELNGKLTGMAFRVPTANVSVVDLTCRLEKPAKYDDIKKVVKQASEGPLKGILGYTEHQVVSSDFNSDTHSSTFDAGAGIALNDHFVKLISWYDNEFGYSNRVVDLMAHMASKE
Sequence of Voltage-gated inwardly rectifying potassium channel KCNH2 (Q12809 whole entry): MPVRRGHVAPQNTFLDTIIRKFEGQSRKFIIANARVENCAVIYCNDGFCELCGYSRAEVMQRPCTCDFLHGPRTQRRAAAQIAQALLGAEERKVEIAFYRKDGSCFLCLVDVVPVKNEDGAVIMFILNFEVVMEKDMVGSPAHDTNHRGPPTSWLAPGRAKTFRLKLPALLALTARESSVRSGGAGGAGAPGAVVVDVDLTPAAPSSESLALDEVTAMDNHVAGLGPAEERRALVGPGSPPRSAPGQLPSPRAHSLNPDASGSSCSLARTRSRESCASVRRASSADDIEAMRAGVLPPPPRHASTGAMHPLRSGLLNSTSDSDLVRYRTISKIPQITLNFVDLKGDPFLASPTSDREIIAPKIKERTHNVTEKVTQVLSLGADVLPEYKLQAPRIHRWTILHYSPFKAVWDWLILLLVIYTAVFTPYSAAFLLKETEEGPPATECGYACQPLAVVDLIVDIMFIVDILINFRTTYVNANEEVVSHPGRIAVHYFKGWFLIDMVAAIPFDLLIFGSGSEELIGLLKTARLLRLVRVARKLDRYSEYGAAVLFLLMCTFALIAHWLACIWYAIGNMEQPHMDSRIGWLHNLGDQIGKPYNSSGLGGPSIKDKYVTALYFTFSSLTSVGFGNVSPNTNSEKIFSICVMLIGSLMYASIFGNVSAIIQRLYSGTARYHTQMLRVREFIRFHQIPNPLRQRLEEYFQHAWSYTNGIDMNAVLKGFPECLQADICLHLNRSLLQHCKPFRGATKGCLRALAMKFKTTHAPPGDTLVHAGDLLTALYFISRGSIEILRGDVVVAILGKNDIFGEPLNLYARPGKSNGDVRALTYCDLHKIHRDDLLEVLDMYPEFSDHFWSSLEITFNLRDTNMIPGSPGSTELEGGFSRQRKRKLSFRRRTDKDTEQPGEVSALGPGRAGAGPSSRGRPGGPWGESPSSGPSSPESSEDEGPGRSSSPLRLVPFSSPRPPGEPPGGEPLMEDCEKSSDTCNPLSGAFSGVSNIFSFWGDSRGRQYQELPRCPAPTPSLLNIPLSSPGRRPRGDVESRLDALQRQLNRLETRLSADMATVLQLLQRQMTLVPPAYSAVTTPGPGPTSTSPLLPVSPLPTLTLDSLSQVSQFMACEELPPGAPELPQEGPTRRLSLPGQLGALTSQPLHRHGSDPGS
Sequence of Cytochrome P450 2C19 (P33261 whole entry): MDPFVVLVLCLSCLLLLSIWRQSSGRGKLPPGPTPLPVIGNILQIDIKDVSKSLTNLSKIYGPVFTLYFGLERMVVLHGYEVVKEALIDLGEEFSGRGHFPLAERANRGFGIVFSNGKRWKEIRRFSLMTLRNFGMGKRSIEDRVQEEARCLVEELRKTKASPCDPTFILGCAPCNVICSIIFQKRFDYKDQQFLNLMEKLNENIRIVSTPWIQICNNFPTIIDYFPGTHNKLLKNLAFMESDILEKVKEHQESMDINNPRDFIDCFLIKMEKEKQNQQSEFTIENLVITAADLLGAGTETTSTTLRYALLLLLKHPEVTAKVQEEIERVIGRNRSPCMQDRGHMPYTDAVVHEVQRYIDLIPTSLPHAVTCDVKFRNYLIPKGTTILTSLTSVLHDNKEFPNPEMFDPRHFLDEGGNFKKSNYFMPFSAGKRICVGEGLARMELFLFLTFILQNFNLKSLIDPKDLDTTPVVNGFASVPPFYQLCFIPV
Sequence of Cytochrome P450 3A4 (P08684 whole entry): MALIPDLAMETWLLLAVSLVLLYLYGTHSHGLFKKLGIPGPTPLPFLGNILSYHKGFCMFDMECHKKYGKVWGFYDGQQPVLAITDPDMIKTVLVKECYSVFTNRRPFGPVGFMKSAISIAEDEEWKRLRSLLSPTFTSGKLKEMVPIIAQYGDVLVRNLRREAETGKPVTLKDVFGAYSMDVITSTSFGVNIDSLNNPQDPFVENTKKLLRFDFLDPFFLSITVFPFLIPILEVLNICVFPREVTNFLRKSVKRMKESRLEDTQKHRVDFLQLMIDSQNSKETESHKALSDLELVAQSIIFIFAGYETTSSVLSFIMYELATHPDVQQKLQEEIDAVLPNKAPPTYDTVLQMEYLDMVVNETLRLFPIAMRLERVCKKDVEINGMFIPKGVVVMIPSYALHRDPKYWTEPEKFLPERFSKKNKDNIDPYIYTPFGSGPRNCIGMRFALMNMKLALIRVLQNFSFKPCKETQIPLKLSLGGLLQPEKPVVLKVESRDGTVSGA
Sequence of Large T antigen (P03070 whole entry): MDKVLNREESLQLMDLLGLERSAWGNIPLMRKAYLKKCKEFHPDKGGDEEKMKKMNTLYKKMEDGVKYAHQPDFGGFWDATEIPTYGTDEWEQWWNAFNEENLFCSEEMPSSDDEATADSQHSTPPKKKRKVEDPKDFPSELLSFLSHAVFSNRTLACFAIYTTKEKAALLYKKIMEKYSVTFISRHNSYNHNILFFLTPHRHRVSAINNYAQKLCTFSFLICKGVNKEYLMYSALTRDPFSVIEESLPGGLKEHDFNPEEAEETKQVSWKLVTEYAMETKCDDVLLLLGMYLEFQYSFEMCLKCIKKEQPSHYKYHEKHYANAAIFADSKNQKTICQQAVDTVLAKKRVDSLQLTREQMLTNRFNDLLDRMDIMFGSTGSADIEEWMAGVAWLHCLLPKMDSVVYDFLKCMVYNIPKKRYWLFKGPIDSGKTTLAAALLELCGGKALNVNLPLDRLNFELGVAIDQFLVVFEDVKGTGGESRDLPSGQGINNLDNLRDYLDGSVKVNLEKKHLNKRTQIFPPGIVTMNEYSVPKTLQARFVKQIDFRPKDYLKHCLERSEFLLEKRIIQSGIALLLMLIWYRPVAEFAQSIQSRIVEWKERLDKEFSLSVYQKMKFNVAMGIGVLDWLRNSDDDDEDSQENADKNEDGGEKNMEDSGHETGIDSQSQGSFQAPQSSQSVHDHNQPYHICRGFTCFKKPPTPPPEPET
Sequence of Mitogen-activated protein kinase 10 (P53779 whole entry): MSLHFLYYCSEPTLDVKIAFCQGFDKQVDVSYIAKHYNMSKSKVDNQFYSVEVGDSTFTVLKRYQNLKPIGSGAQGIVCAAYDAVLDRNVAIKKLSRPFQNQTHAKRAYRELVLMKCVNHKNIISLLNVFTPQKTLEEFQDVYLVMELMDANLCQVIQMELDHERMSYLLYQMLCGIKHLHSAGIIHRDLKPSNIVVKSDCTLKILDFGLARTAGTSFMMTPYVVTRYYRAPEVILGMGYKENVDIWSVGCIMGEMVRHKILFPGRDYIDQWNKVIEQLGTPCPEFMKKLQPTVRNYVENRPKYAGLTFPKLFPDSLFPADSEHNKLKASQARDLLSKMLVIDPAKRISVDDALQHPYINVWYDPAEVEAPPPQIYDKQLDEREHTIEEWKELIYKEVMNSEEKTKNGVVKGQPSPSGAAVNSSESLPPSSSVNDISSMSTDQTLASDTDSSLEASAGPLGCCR
Sequence of Protein Wnt-3a (P27467 whole entry): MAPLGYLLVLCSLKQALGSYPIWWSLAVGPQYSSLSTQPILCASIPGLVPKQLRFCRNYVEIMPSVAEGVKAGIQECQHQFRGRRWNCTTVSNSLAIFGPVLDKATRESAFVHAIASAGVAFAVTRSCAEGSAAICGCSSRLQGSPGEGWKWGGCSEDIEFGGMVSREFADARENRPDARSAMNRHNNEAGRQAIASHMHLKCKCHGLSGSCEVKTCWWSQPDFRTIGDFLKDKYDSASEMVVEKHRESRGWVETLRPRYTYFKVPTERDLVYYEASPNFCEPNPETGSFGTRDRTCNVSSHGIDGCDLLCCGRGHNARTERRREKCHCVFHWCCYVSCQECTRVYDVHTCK

CCCCC(CC)CNCC(CC)CCCC (configuration not stated)
AC50 [1]: 10 µM (inconclusive)

CNc1ccc(/C=C(\CCC(=O)O)c2nc3ccccc3s2)cc1[N+](=O)[O-]
IC50 (Aminopeptidase N): 43.3 µM (active)

c1ccc(CSCc2ccccc2)cc1
AC50 [1]: 31.6 µM (inconclusive)

CCCCC(=O)NC(c1ccc([N+](=O)[O-])cc1)c1c(O)ccc2ccccc12 (configuration not stated)
CC50 (Vero): 9.36 µM (active)

O=C(Nc1cccc(Cl)c1)Nc1nccs1
AC50 [2]: 8.46 µM (active) | EC50 [3]: > 160 µM (inactive) | EC50 [4]: 1.17 µM (active)

Cc1c(-c2ccccc2)n[nH]c1C(=O)O
IC50 [5]: > 100 µM (inactive) | IC50 [6]: > 100 µM (not active)

CN1CCN(c2ccc3ccccc3n2)CC1
AC50 [1]: 35.5 µM (inconclusive)

NNC(=O)c1cc(-c2cc(F)c(F)cc2F)[nH]n1
IC50 [5]: 0.316 µM (active) | IC50 [6]: > 10 µM (inconclusive)

CCCCN1C(=O)/C(=C/C=C2\SCCN2C)SC1=S
AC50 (HeLa): 39.1 µM (active)

O=C(O)/C=C/c1ccc(/C=C/C(=O)O)cc1
AC50 [1]: 79.4 µM (inconclusive)

CC[N+](C)(CC)CCC(c1ccccc1)C1CCCCC1 (configuration not stated)
IC50 (Protein Wnt-3a): 39 µM (inactive) | AC50 (INS1): 233 µM (active) | IC50 [7]: 4.65 µM (active)

c1ccc(-c2noc(COc3ccc4c(c3)OCO4)n2)cc1
AC50 (HeLa): 339 µM (active)

COc1ccccc1NS(=O)(=O)c1ccc(Cl)c(NC(=O)C(C)N2C(=O)c3ccccc3C2=O)c1 (configuration not stated)
IC50 (Aminopeptidase N): 26.9 µM (active)

CS(=O)(=O)Nc1ccc(-c2cc(/C=C3\SC(N)=NC3=O)cnc2O)cc1
AC50 [2]: 0.265 µM (active)

COc1ccc(NC(=O)/C(C#N)=C/c2ccc(Br)o2)cc1
CC50 [8]: 27.4 µM (active) | IC50 [7]: 5.43 µM (active)

C[C@H]1CN(C2=C(Cl)C(=O)N(c3cccc(C(F)(F)F)c3)C2=O)CCN1
IC50 [6]: > 50 µM (inconclusive)

O=C(Nc1ccc(Cl)c(Cl)c1)Nc1ccccc1O
AC50 (HeLa): 49.7 µM (active) | AC50 [9]: 5.67 µM (active)

NC(=O)c1cc(Br)cc2c3c([nH]c12)CCCC3
AC50 [2]: 9.32 µM (active) | IC50 [10]: 12.5 µM (not active)

CCN1C(=O)/C(=C2/Sc3ccccc3N2CC)S/C1=N\c1nc[nH]n1
AC50 [2]: 1.04 µM (active)

O=C1OCC/C1=C\c1ccc(O)cc1
AC50 [2]: 0.585 µM (active) | IC50 [11]: 28.9 µM (active) | IC50 (Large T antigen): 17.4 µM (active)

Cn1c(SCC(=O)c2ccc(O)c(O)c2)nnc1-c1ccccc1
IC50 [5]: 93.4 µM (active)

C[C@H](Cc1ccc(O)c(O)c1)[C@@H](C)Cc1ccc(O)c(O)c1 [MASOPROCOL]
AC50 (Cytochrome P450 3A4): inconclusive | AC50 (Cytochrome P450 1A2): 25.1 µM (inconclusive) | AC50 [1]: 35.5 µM (inconclusive) | AC50 (Cytochrome P450 2C19): 15.8 µM (inconclusive) | AC50 (Cytochrome P450 2D6): 39.8 µM (inconclusive)
